Experimental data taken from patent publication US8697883B2, “Cyclopenta[C]pyrrole-2-carboxylate derivatives, preparation thereof and therapeutic use thereof” (Sanofi, priority 2009, dated 2014).
pIC50: −log10 of the molar value.

Experiments:
[1] = molecular target: T1, enzyme FAAH (Fatty Acid Amide Hydrolase) (Mus musculus, UniProt O08914); test: FAAH radioenzymatic test, hydrolysis of anandamide [ethanolamine 1-3H] (protocol 1); assay type: biochemical; conditions: mouse brain membrane homogenate, anandamide 10 μM, 20 min preincubation at 25° C., read-out: IC50 (concentration that inhibits 50% of the control enzymatic activity of FAAH)
T1 construct: The membrane homogenates are prepared extemporaneously by homogenizing the tissues; from tissue; host or cells: mouse brain minus cerebellum, membrane/brain homogenate
T1 sequence (O08914 1-579): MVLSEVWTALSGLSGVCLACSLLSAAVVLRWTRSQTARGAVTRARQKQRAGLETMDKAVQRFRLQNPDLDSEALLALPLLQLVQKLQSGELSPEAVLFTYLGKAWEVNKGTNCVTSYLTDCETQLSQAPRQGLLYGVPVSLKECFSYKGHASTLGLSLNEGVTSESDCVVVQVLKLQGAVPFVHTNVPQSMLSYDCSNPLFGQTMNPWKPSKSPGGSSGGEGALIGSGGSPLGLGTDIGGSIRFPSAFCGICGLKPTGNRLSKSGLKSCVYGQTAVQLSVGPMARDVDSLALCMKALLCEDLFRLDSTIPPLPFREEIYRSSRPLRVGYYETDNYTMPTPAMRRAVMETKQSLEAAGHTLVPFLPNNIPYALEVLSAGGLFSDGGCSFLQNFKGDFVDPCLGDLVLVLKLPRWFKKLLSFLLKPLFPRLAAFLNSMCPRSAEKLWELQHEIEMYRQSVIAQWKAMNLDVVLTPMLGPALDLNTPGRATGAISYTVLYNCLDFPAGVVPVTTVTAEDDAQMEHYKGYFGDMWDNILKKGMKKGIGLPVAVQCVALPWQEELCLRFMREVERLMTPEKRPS
Protocol: (§1) The compounds of the invention underwent pharmacological tests to determine their inhibitory effect on the enzyme FAAH (Fatty Acid Amide Hydrolase).
Thus, mouse brains (minus the cerebellum) are removed and stored at −80° C. The membrane homogenates are prepared extemporaneously by homogenizing the tissues using a Precellys® machine in reaction buffer (10 mM Tris-HCl, pH=8, 150 mM NaCl and 1 mM ethylenediaminetetraacetic acid (EDTA)). The enzymatic reaction is performed in 96-well Multiscreen filtration plates in a final volume of 70 μL. Reaction buffer supplemented with fatty acid-free bovine serum albumin (BSA, 1 mg/ml) is used for the enzymatic reaction and the dilution of the compounds and of the anandamide [ethanolamine 1-^3H]. The reaction buffer containing BSA (43 μL/well), the diluted test compounds at different concentrations (7 μL/well containing 1% DMSO) and the membrane preparation (10 μL/well, i.e. 200 μg of tissue per test) are successively added to the wells. After preincubation for 20 minutes of the compounds with the enzyme at 25° C., the reaction is started by adding anandamide [ethanolamine 1-^3H] (specific activity of 15-20 Ci/mmol) diluted with cold anandamide (10 μL/well, final concentration of 10 μM, 0.01 μCi per test). After incubation for 20 minutes at 25° C., the enzymatic reaction is stopped by adding a […] solution of active charcoal prepared in 1.5M NaCl buffer and 0.5 M HCl (50 μL/well). The mixture is stirred for 10 minutes and the aqueous phase containing the ethanolamine [1-^3H] is then recovered by filtration under vacuum and counted by liquid scintillation.

[2] = test system: male OF1 mice; test: Test of analgesia: PBQ-induced abdominal stretching; assay type: in vivo, mouse; conditions: 30 mg/kg p.o. at 120 minutes
Protocol: The in vivo activity of the compounds of the invention was evaluated in a test of analgesia.
Thus, the intraperitoneal (i.p.) administration of PBQ (phenylbenzoquinone, 2 mg/kg in 0.9% sodium chloride solution containing 5% ethanol) to male OF1 mice weighing 25 to 30 g causes abdominal stretching, on average 30 torsions or contractions within a period of 5 to 15 minutes after injection. The test compounds are administered orally (p.o.) or intraperitoneally (i.p.) suspended in Tween 80 at 0.5%, 60 minutes or 120 minutes before the administration of PBQ. Under these conditions, the compounds of the invention that are the most powerful reduce by 35% to 80% the number of stretches induced with PBQ, over a dose range of between 1 and 30 mg/kg.

[3] = molecular target: T1, enzyme FAAH (Fatty Acid Amide Hydrolase); test: FAAH fluorescent enzymatic test, hydrolysis of AAMC (protocol 2); assay type: biochemical; conditions: mouse brain homogenate, AAMC 10 μM, 20 min preincubation at 25° C., 40 min at 37° C., read-out: IC50 (concentration that inhibits 50% of the control enzymatic activity of FAAH)
Protocol: as §1
Thus, mouse brains (minus the cerebellum) are withdrawn and stored at −80° C. The brain homogenates are prepared extemporaneously by homogenizing the tissues using a Precellys® machine in reaction buffer (10 mM Tris-HCl, pH=8, 150 mM NaCl and 1 mM ethylenediaminetetraacetic acid (EDTA)). The enzymatic reaction is performed in black polystyrene 384-well plates in a final volume of 50 μL. Reaction buffer supplemented with fatty acid-free bovine serum albumin (BSA, 1 mg/ml) is used for the enzymatic reaction, the dilution of the compounds and the dilution of the AAMC. Reaction buffer containing the BSA (25 μL/well), the diluted test compounds at different concentrations (5 μL/well containing 1% DMSO) and the membrane preparation (10 μL/well, i.e. 200 μg of tissue per test) are successively added to the wells. After preincubation for 20 minutes of the compounds with the enzyme at 25° C., the reaction is started by adding 10 μL of substrate per well (AAMC, final concentration of 10 μM). After incubation for 40 minutes at 37° C., the aminomethyl coumarin (AMC) produced is measured by fluorescent counting (Envision plate reader).

pIC50 [1]	melting point	pIC50 [3]	SMILES	reduction of the number of stretches induced with PBQ [2]
7.47	149 to 151 °C		CCOc1ccc2ccc(OC3CC4CN(C(=O)OCc5nc(C(=O)NC)cs5)CC4C3)cc2c1 [Compound 23, [4-(methylcarbamoyl)thiazol-2-yl]methyl (3aR,5s,6aS)-5-[(7-ethoxy-2-naphthyl)oxy]hexahydrocyclopenta[c]pyrrole-2(1H)-carboxylate]	
7.92	131 to 133 °C		CNC(=O)c1cc(COC(=O)N2C[C@H]3C[C@H](Oc4ccc(Cl)c5ccccc45)C[C@H]3C2)on1 [Compound 28, [3-(methylcarbamoyl)isoxazol-5-yl]methyl (3aR,5s,6aS)-5-[(4-chloro-1-naphthyl)oxy]hexahydrocyclopenta[c]pyrrole-2(1H)-carboxylate]	
	154 to 156 °C	9.33	CNC(=O)c1cc(COC(=O)N2C[C@H]3C[C@H](Oc4ccc(-c5ccc(F)cc5)cc4)C[C@H]3C2)on1 [Compound 45, (3-methylcarbamoylisoxazol-5-yl)methyl (3aR,5s,6aS)-5-[(4′-fluorobiphenyl-4-yl)oxy]hexahydrocyclopenta[c]-pyrrole-2(1H)-carboxylate]	

More lines, now with the values behind:

SMILES	pIC50 [1]	melting point	pIC50 [3]	reduction of the number of stretches induced with PBQ [2]
CCOc1ccc2ccc(O[C@H]3C[C@@H]4CN(C(=O)OCc5nccs5)C[C@@H]4C3)cc2c1 [Compound 3, thiazol-2-ylmethyl (3aR,5s,6aS)-5-[(7-ethoxy-2-naphthyl)oxy]hexahydrocyclopenta[c]pyrrole-2(1H)-carboxylate]	8.46			
O=C(OCc1csnn1)N1C[C@H]2C[C@H](Oc3ccc(Cl)cc3)C[C@H]2C1 [Compound 7, 1,2,3-thiadiazol-4-ylmethyl (3aR,5s,6aS)-5-(4-chlorophenoxy)hexahydrocyclopenta[c]pyrrole-2(1H)-carboxylate]	7.05	122 to 124 °C		
NC(=O)c1cc(COC(=O)N2C[C@H]3C[C@H](Oc4ccc(Cl)cc4)C[C@H]3C2)on1 [Compound 12, (3-carbamoylisoxazol-5-yl)methyl (3aR,5s,6aS)-5-(4-chlorophenoxy)hexahydrocyclopenta[c]pyrrole-2(1H)-carboxylate]	7.72			
CCOc1ccc2ccc(O[C@H]3C[C@@H]4CN(C(=O)OCc5cc(C(N)=O)no5)C[C@@H]4C3)cc2c1 [Compound 24, (3-carbamoylisoxazol-5-yl)methyl (3aR,5s,6aS)-5-[(7-ethoxy-2-naphthyl)oxy]hexahydrocyclopenta[c]pyrrole-2(1H)-carboxylate]				50%
NC(=O)c1cc(COC(=O)N2C[C@H]3C[C@H](Oc4ccc(Cl)c(F)c4)C[C@H]3C2)on1 [Compound 34, (3-carbamoylisoxazol-5-yl)methyl (3aR,5s,6aS)-5-(4-chloro-3-fluorophenoxy)hexahydrocyclopenta[c]pyrrole-2(1H)-carboxylate]	8.49	100 to 102 °C		
CNC(=O)c1cc(COC(=O)N2C[C@H]3C[C@H](Oc4ccc(Cl)c(F)c4)C[C@H]3C2)on1 [Compound 35, [3-(methylcarbamoyl)isoxazol-5-yl]methyl (3aR,5s,6aS)-5-(4-chloro-3-fluorophenoxy)hexahydrocyclopenta[c]pyrrole-2(1H)-carboxylate]				50%
CN(C)C(=O)c1cc(COC(=O)N2C[C@H]3C[C@H](Oc4ccc(F)cc4)C[C@H]3C2)on1 [Compound 44, (3-dimethylcarbamoylisoxazol-5-yl)methyl (3aR,5s,6aS)-5-(4-fluorophenoxy)hexahydrocyclopenta[c]pyrrole-2(1H)-carboxylate]			8.13	
